*1 amine or outer side, *2 acyl side, *3 side chain or, on linkers, in order; H or OH if unused. Where a SMILES comes first, the peptide text is derived from it. Side-chain parts run from the residue outwards. [ ]: non-standard residue; d: D form. The star is where a group is joined. γGlu = O=C(O)[C@H](CCC(=O)[*:2])N[*:1]; Palmitoyl = CCCCCCCCCCCCCCCC(=O)*; Aib = CC(C)(N)C(=O)O
What was measured:
Assay type in all cases: cell-based
Details in all cases: Table 7; cAMP formation
[1] = biological target: T1, human GLP-1 receptor (hGLP-1 R) (Homo sapiens, UniProt P43220); experiment: cAMP response of HEK-293 cells stably expressing human GLP-1 receptor (HTRF)
T1 construct: expressed in transfected cells
Method in brief: (§1)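 Cells grown overnight in DMEM/10% FBS, detached with accutase, resuspended in HBSS with 20 mM HEPES, 0.1% BSA and 2 mM IBMX at 400000 cells/ml. Test compound added and incubated 30 minutes at room temperature; cellular cAMP then measured by HTRF.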

[2] = biological target: T2, human GIP receptor (hGIP R) (Homo sapiens, UniProt P48546); experiment: cAMP response of HEK-293 cells stably expressing human GIP receptor (HTRF)
T2 construct: expressed in transfected cells
T2 sequence (P48546 22-466): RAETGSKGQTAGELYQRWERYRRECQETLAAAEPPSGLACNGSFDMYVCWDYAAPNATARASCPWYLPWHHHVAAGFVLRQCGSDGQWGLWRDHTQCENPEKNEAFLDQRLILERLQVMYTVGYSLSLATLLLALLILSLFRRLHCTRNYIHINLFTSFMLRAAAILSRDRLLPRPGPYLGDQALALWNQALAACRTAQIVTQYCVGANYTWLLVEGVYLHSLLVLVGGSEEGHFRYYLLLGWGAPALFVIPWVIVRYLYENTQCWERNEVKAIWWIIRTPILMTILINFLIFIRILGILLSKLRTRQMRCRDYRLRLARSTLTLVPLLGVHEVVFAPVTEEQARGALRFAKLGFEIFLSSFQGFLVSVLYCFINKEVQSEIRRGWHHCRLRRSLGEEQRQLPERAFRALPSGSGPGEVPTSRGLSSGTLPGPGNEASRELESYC
Method in brief: as §1

[3] = biological target: T3, human glucagon receptor (hGLUC R) (Homo sapiens, UniProt P47871); experiment: cAMP response of HEK-293 cells stably expressing human glucagon receptor (HTRF)
T3 construct: expressed in transfected cells
Method in brief: as §1

T1 sequence (P43220 24-463): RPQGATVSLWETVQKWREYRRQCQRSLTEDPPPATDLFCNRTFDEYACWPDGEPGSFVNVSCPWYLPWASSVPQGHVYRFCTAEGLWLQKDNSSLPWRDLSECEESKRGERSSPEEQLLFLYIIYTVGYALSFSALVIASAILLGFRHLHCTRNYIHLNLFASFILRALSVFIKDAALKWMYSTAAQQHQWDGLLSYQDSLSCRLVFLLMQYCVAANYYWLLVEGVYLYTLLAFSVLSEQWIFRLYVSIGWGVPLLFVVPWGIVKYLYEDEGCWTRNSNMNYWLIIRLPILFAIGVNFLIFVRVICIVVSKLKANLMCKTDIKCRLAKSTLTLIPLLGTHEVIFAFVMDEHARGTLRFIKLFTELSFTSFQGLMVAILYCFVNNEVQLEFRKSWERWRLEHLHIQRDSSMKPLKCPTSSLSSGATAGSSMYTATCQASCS
T3 sequence (P47871 26-477): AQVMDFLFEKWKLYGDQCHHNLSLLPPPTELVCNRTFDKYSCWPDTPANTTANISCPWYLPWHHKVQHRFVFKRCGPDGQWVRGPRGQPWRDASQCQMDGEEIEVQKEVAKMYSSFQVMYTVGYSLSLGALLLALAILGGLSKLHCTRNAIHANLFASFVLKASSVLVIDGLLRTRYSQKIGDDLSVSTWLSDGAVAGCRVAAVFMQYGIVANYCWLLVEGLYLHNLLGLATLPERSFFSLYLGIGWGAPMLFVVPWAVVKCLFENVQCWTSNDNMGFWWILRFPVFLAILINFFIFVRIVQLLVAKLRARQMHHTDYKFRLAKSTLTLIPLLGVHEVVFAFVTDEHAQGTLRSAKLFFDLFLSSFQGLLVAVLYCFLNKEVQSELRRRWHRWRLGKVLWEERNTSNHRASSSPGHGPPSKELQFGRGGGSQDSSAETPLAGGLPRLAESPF

Row | Compound | EC50 [1] [nM] | EC50 [2] [nM] | EC50 [3] [nM]
1 | CCCCCCCCCCCCCCCC(=O)N[C@@H](CCC(=O)NCCCC[C@H](NC(=O)[C@H](CCC(N)=O)NC(=O)[C@@H](NC(=O)[C@H](CO)NC(=O)[C@H](CC(C)C)NC(=O)[C@H](CC(=O)O)NC(=O)[C@H](CO)NC(=O)[C@@H](NC(=O)[C@H](Cc1ccccc1)NC(=O)[C@@H](NC(=O)CNC(=O)[C@H](CCC(N)=O)NC(=O)C(C)(C)NC(=O)[C@@H](N)Cc1ccc(O)cc1)[C@@H](C)O)[C@@H](C)O)[C@@H](C)CC)C(=O)N[C@@H](CCC(=O)O)C(=O)N[C@@H](CCCCN)C(=O)N[C@@H](CCCNC(=N)N)C(=O)NC(C)(C)C(=O)N[C@@H](C)C(=O)NC(C)(C)C(=O)N[C@@H](CCC(=O)O)C(=O)N[C@@H](Cc1ccccc1)C(=O)N[C@H](C(=O)N[C@@H](CCC(=O)O)C(=O)N[C@@H](Cc1c[nH]c2ccccc12)C(=O)N[C@@H](CC(C)C)C(=O)N[C@@H](CCCCN)C(=O)N[C@@H](CC(N)=O)C(=O)N[C@H](C(=O)NCC(=O)N1CCC[C@H]1C(=O)N[C@@H](CO)C(=O)N[C@@H](CO)C(=O)NCC(=O)N[C@@H](C)C(=O)N1CCC[C@H]1C(=O)N1CCC[C@H]1C(=O)N1CCC[C@H]1C(=O)N[C@@H](CO)C(N)=O)[C@@H](C)O)[C@@H](C)CC)C(=O)O [SEQ ID NO: 11, Y-Aib-Q-G-T-F-T-S-D-L-S-I-Q-K(yE-x53)-E-K-R-Aib-A-Aib-E-F-I-E-W-L-K-N-T-G-P-S-S-G-A-P-P-P-S-NH2] (H-Y[Aib]QGTFTSDLSIQK([γGlu-Palmitoyl])EKR[Aib]A[Aib]EFIEWLKNTGPSSGAPPPS-NH2) | 0.0038 | 0.0144 | 0.0669
2 | CCCCCCCCCCCCCCCC(=O)NCCCC[C@H](NC(=O)[C@H](CCC(N)=O)NC(=O)[C@@H](NC(=O)[C@H](CO)NC(=O)[C@H](CC(C)C)NC(=O)[C@H](CC(=O)O)NC(=O)[C@H](CO)NC(=O)[C@@H](NC(=O)[C@H](Cc1ccccc1)NC(=O)[C@@H](NC(=O)CNC(=O)[C@H](CCC(N)=O)NC(=O)C(C)(C)NC(=O)[C@@H](N)Cc1ccc(O)cc1)[C@@H](C)O)[C@@H](C)O)[C@@H](C)CC)C(=O)N[C@@H](CCC(=O)O)C(=O)N[C@@H](CCC(N)=O)C(=O)N[C@@H](CCCNC(=N)N)C(=O)N[C@@H](C)C(=O)N[C@@H](C)C(=O)NC(C)(C)C(=O)N[C@@H](CCC(=O)O)C(=O)N[C@@H](Cc1ccccc1)C(=O)N[C@H](C(=O)N[C@@H](CCC(=O)O)C(=O)N[C@@H](Cc1c[nH]c2ccccc12)C(=O)N[C@@H](CC(C)C)C(=O)N[C@@H](CCCCN)C(=O)N[C@@H](CC(N)=O)C(=O)N[C@H](C(=O)NCC(=O)N1CCC[C@H]1C(=O)N[C@@H](CO)C(=O)N[C@@H](CO)C(=O)NCC(=O)N[C@@H](C)C(=O)N1CCC[C@H]1C(=O)N1CCC[C@H]1C(=O)N1CCC[C@H]1C(=O)N[C@@H](CO)C(N)=O)[C@@H](C)O)[C@@H](C)CC [SEQ ID NO: 21, Y-Aib-Q-G-T-F-T-S-D-L-S-I-Q-K(x53)-E-Q-R-A-A-Aib-E-F-I-E-W-L-K-N-T-G-P-S-S-G-A-P-P-P-S-NH2] (H-Y[Aib]QGTFTSDLSIQK(Palmitoyl)EQRAA[Aib]EFIEWLKNTGPSSGAPPPS-NH2) | 0.037 | 0.189 | 0.674
3 | CCCCCCCCCCCCCCCC(=O)N[C@@H](CCC(=O)NCCCC[C@H](NC(=O)[C@H](CCC(N)=O)NC(=O)[C@@H](NC(=O)[C@H](CO)NC(=O)[C@H](CC(C)C)NC(=O)[C@H](CC(=O)O)NC(=O)[C@H](CO)NC(=O)[C@@H](NC(=O)[C@H](Cc1ccccc1)NC(=O)[C@@H](NC(=O)CNC(=O)[C@H](CCC(N)=O)NC(=O)C(C)(C)NC(=O)[C@@H](N)Cc1ccc(O)cc1)[C@@H](C)O)[C@@H](C)O)[C@@H](C)CC)C(=O)N[C@@H](CCC(=O)O)C(=O)N[C@@H](CCCCN)C(=O)N[C@@H](CCCNC(=N)N)C(=O)N[C@@H](Cc1ccc(O)cc1)C(=O)N[C@@H](C)C(=O)NC(C)(C)C(=O)N[C@@H](CCC(=O)O)C(=O)N[C@@H](Cc1ccccc1)C(=O)N[C@H](C(=O)N[C@@H](CCC(=O)O)C(=O)N[C@@H](Cc1c[nH]c2ccccc12)C(=O)N[C@@H](CC(C)C)C(=O)N[C@@H](CCCCN)C(=O)N[C@@H](CC(N)=O)C(=O)N[C@H](C(=O)NCC(=O)N1CCC[C@H]1C(=O)N[C@@H](CO)C(=O)N[C@@H](CO)C(=O)NCC(=O)N[C@@H](C)C(=O)N1CCC[C@H]1C(=O)N1CCC[C@H]1C(=O)N1CCC[C@H]1C(=O)N[C@@H](CO)C(N)=O)[C@@H](C)O)[C@@H](C)CC)C(=O)O [SEQ ID NO: 13, Y-Aib-Q-G-T-F-T-S-D-L-S-I-Q-K(yE-x53)-E-K-R-Y-A-Aib-EFIEWLKNTGPSSGAPPPSN H2] (H-Y[Aib]QGTFTSDLSIQK([γGlu-Palmitoyl])EKRYA[Aib]EFIEWLKNTGPSSGAPPPS-NH2) | 0.0141 | 0.0263 | 0.0202
4 | CCCCCCCCCCCCCCCC(=O)N[C@@H](CCC(=O)NCCCC[C@H](NC(=O)[C@H](CCC(N)=O)NC(=O)[C@@H](NC(=O)[C@H](CO)NC(=O)[C@H](CC(C)C)NC(=O)[C@H](CC(=O)O)NC(=O)[C@H](CO)NC(=O)[C@@H](NC(=O)[C@H](Cc1ccccc1)NC(=O)[C@@H](NC(=O)CNC(=O)[C@H](CCC(N)=O)NC(=O)C(C)(C)NC(=O)[C@@H](N)Cc1ccc(O)cc1)[C@@H](C)O)[C@@H](C)O)[C@@H](C)CC)C(=O)N[C@@H](CC(=O)O)C(=O)N[C@@H](CO)C(=O)N[C@@H](CCCNC(=N)N)C(=O)N[C@@H](CCCNC(=N)N)C(=O)N[C@@H](C)C(=O)N[C@@H](CCC(N)=O)C(=O)N[C@@H](CC(=O)O)C(=O)N[C@@H](Cc1ccccc1)C(=O)N[C@H](C(=O)N[C@@H](CCC(=O)O)C(=O)N[C@@H](Cc1c[nH]c2ccccc12)C(=O)N[C@@H](CC(C)C)C(=O)N[C@@H](CCCCN)C(=O)N[C@@H](C)C(=O)NCC(=O)NCC(=O)N1CCC[C@H]1C(=O)N[C@@H](CO)C(=O)N[C@@H](CO)C(=O)NCC(=O)N[C@@H](C)C(=O)N1CCC[C@H]1C(=O)N1CCC[C@H]1C(=O)N1CCC[C@H]1C(=O)N[C@@H](CO)C(N)=O)[C@@H](C)CC)C(=O)O [SEQ ID NO: 52, Y-Aib-Q-G-T-F-T-S-D-L-S-I-Q-K(yE-x53)-DSRRAQDFIEWLKAGGPSSGAPPPS-NH2] (H-Y[Aib]QGTFTSDLSIQK([γGlu-Palmitoyl])DSRRAQDFIEWLKAGGPSSGAPPPS-NH2) | 0.0256 | 0.182 | 0.0133

From patent publication US20140213513A1 (Sanofi, priority 2012, published 2014)
